Measured values as given in PMC4931907 (eLife, 2016).
One block for each molecule: values may come before it.

How the values were obtained:
[1] = target: T1, p300 (Homo sapiens, UniProt Q09472); assay: In vitro HAT assay with recombinant p300, histones and 14C acetyl-CoA; type: biochemical; settings: for Inhibition of p300 acetyltransferase in vitro: data not shown; for IC50: in vitro HAT assay, recombinant p300 and histones, read-out: IC50, p300 acetyltransferase activity
T1 construct: in vitro acetylation assays with purified histones and a recombinant p300 catalytic domain; purchased Enzo Life Sciences
T1 sequence (Q09472 1287-1663 limits assumed): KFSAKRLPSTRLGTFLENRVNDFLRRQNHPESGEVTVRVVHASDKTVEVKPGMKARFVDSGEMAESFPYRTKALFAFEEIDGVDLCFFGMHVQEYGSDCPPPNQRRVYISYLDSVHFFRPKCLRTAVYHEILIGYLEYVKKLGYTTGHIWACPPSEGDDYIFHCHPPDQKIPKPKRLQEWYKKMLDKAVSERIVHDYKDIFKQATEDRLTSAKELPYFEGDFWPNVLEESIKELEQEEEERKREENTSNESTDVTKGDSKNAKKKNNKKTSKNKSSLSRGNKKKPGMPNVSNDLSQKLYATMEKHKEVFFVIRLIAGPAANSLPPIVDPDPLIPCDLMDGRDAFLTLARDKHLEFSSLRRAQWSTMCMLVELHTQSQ
Protocol: To determine whether salicylate inhibits p300 and other acetyltransferases, we used in vitro acetylation assays with purified histones and a recombinant p300 catalytic domain.
(§1) Figure 1. Salicylate inhibits CBP/p300 in vitro. (A) Recombinant p300, CBP, GCN5, or PCAF and histones were incubated with ^14C-labeled acetyl-CoA with or without sodium salicylate, separated by SDS-PAGE, analyzed by autoradiography, and quantified with Image J software. Acetylation levels are relative to those in untreated controls. (B) Thermal stability assay for sodium salicylate binding to the p300 HAT domain. Tm, melting temperature. (C) and (D) Lineweaver-Burk plots showing kinetic analysis of p300 acetyltransferase inhibition by sodium salicylate. Histone acetylation was measured with several concentrations of acetyl-CoA (C) or histone (D) in the presence or absence of sodium salicylate. DOI: http://dx.doi.org/10.7554/eLife.11156.003 Figure 1—figure supplement 1. […] (A) Dose-response data for inhibition of p300 by salicylate and salicyl-CoA. Acetylation of an H4(3–14) peptide was monitored using direct microfluidic mobility shift analysis as previously described ([Montgomery et al., 2014]; [Fanslau et al., 2010]). Error is given as the 95% confidence interval. […] Error is given as the 95% confidence interval. DOI: http://dx.doi.org/10.7554/eLife.11156.004 [drawing 1] TEXT PRINTED IN THE PICTURE: (A) Salicylate: p300 IC50 (mM): 6.12; Confidence Interval [CI95] (mM): 5.2–7.2 | (A) Salicyl-CoA: p300 IC50 (mM): […]; Confidence Interval [CI95] […] (mM): 0.78–1.4 | (B) Diflunisal-CoA: p300 IC50 (mM): 0.02; Confidence Interval [CI95] (mM): 0.02–0.03
Recombinant HAT ([…]), either p300, CBP, PCAF, or GCN5 (Enzo Life Sciences), and 10 µg of histones (Sigma) were incubated with sodium salicylate (Sigma) in reaction buffer (50 mM HEPES, pH 8.0, 10% glycerol, 1 mM) at 30°C for 30 min and then with 0.1 mCi of ^14C acetyl-CoA at 30°C for 60 min. Reactions were stopped by adding 6x sample buffer and analyzed by SDS-PAGE. The gels were dried, and signals were obtained by autoradiography and quantified with Image J software. To quantify acetylated histone levels, we generated a standard curve from signals of lanes loaded with […] of ^14C labeled histones.

[2] = target: T1, p300; assay: p300 inhibition by direct microfluidic mobility shift analysis, H4(3–14) peptide; type: biochemical; settings: for IC50: microfluidic mobility shift, H4(3–14) peptide, 5 μM acetyl-CoA; for Fold increased potency of CoA metabolite in comparison with parent drug: ratio of p300 IC50 values
Protocol: as §1
Salicyl-CoA and diflunisal-CoA were synthesized from their parent carboxylic acids and HPLC purified according to previously reported methods ([Padmakumar et al., 1997]). The purity of each acyl-CoA was confirmed by analytical HPLC prior immediately prior to utilization ([Montgomery et al., 2014]; [Fanslau et al., 2010]). P300 inhibition assays were performed using direct microfluidic mobility shift analysis as previously described. Briefly, p300 reaction mixture (50 mM HEPES, pH 7.5, 50 mM NaCl, 2 mM EDTA, 2 mM DTT, 0.05% Triton-X-100, 50 nM p300, 2 μM FITC-histone H4 peptide) was plated in 384-well plates and allowed to equilibrate at room temperature for 10 min. Reactions were initiated by addition of acetyl-CoA (final concentration = 5 μM), bringing the final assay volume to 30 μL. Assays were quenched after 10 min (<15% product accumulation) by addition of 5 μL of 0.5 M neutral hydroxylamine and transferred to a Perkin-Elmer Lab-Chip EZ-Reader instrument for analysis. Separation conditions were: downstream voltage of −500 V, upstream voltage of −2500 V, and a pressure of −1.5 psi. Percent conversion was calculated by ratiometric measurement of substrate/product peak heights. Percent activity represents the percent conversion of KAT reactions treated with inhibitors relative to untreated control KAT reactions, and corrected for nonenzymatic acetylation. Dose-response analysis of p300 inhibition was performed in triplicate and analyzed by nonlinear least-squares regression fit to Y = 100/(1 + 10∧(Log IC50 – X)*H), where H = Hill slope (variable). IC50 values represent the concentration that inhibits 50% of KAT activity. Calculations were performed using Prism 6 (GraphPad) software.

Inhibition of p300 acetyltransferase in vitro [1]: did not detect any inhibitory activity
SMILES: COc1ccc2c(c1)c(CC(=O)O)c(C)n2C(=O)c1ccc(Cl)cc1 [indomethacin]

IC50 [1]: 664 µM
SMILES: COc1c(C)c2c(c(O)c1C/C=C(\C)CCC(=O)O)C(=O)OC2 [mycophenolic acid]

IC50 [2]: 20 µM
Fold increased potency of CoA metabolite in comparison with parent drug [2]: 52 fold
SMILES: CC(C)(COP(=O)(O)OP(=O)(O)OCC1OC(n2cnc3c(N)ncnc32)C(O)C1OP(=O)(O)O)C(O)C(=O)NCCC(=O)NCCSC(=O)c1cc(-c2ccc(F)cc2F)ccc1O (centres unmarked) [diflunisal-CoA]

IC50 [1]: 374 µM
SMILES: CCOc1cc(CC(=O)N[C@@H](CC(C)C)c2ccccc2N2CCCCC2)ccc1C(=O)O [repaglinide]

IC50 [2]: 220 µM
Fold increased potency of CoA metabolite in comparison with parent drug [2]: 28 fold
SMILES: CC(C)(COP(=O)(O)OP(=O)(O)OC[C@H]1O[C@@H](n2cnc3c(N)ncnc32)[C@H](O)[C@@H]1OP(=O)(O)O)[C@@H](O)C(=O)NCCC(=O)NCCSC(=O)c1ccccc1O [salicyl-CoA]

Further lines, the molecule ahead of its results:

SMILES: CC(=O)Nc1ccc(O)cc1 [acetaminophen]
Inhibition of p300 acetyltransferase in vitro [1]: did not detect any inhibitory activity

SMILES: Nc1ccc(C(=O)O)c(O)c1 [4-Amino- Salicylic Acid, 4-aminosalicylic acid]
IC50 [1]: 12400 µM

SMILES: Nc1ccc(O)c(C(=O)O)c1 [5-Amino- Salicylic Acid, 5-aminosalicylic acid]
IC50 [1]: 7600 µM

SMILES: CC(=O)Oc1ccccc1C(=O)O [Acetyl- Salicylic Acid, acetylsalicylic acid]
IC50 [1]: 14200 µM
